Test results published in US20250034151A1, “WEE1 INHIBITOR, PREPARATION THEREFOR, AND USE THEREOF” (JIANGSU TASLY DIYI PHARMACEUTICAL CO., LTD., priority 2022, published 2025).
pIC50: −log10 of the molar value. Where two headings read alike, the source gives them in different places.

Legend:
CYP2B6 = molecular target: T1, CYP2B6 (Homo sapiens, UniProt P20813); assay: CYP450 isoform enzymatic inhibition, 2B6; format: in vitro ADME; settings: pH 7.4, read-out: CYP inhibiton/% 2B6
T1 sequence (P20813 1-491): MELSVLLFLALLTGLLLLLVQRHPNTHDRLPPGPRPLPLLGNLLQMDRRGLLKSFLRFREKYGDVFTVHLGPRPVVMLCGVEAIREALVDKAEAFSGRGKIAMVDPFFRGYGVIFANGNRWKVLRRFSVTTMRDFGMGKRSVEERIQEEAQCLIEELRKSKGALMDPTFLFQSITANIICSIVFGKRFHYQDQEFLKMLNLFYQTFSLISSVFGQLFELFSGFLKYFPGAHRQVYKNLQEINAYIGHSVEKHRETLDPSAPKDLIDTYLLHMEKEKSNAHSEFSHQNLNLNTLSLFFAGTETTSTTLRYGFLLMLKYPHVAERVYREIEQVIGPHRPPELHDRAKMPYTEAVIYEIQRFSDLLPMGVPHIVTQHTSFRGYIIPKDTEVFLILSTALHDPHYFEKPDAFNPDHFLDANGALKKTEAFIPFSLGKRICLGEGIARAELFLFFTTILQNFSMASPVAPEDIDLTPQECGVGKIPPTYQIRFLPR
Description: Enzymatic experiments were performed to quantify the inhibition of CYP450 enzyme activity of each isoform of CYP450 by small molecule inhibitors through fluorescence generated by the oxidation of the The substrate by cytochrome P450. […] The Solution B composition used for the experiment was: 40 U/mL G6PDH (Sigma-aldrich, Cat #G6378). The The substrate mix was 0.05×Solution A, 0.01×Solution B, 50 mM Potassium Phosphate, 0.01 mM BOMCC/0.01 mM EOMCC/0.001 mM DBOMF.

Wee1 protein = molecular target: T2, Wee1 protein (Homo sapiens, UniProt P30291); assay: Binding of compound to Wee1 protein and Tracer 178 by TR-FRET (Wee1 kinase inhibitory activity); settings: 15 nM WEE1, 50 nM Tracer 178, read-out: IC50 (inhibitory activity against Wee1 kinase)
T2 construct: purchased Thermo Fisher PR7373A
T2 sequence (P30291 whole entry): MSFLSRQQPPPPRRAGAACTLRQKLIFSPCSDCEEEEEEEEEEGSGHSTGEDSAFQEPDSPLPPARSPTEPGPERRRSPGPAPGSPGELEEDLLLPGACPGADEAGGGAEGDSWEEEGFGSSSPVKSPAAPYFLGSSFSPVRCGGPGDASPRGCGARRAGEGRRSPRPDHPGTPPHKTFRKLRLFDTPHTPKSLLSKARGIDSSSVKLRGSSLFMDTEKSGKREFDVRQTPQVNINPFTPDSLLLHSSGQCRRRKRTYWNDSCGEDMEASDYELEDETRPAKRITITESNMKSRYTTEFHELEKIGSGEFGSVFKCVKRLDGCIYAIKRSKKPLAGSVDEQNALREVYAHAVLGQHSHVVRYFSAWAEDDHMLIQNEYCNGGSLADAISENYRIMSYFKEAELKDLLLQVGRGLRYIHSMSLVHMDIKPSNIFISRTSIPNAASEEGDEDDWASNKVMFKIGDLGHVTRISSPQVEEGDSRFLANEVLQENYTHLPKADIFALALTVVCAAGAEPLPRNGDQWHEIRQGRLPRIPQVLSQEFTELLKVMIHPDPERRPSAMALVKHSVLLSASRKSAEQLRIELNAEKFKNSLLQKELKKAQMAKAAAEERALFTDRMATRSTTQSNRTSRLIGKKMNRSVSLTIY
Description: First, solutions of the compounds in different concentration gradients were prepared. The compounds were dissolved in DMSO and the compounds were diluted 4 folds with a total of 10 dose points and 2 parallel replicates for each concentration.
The IC50 for inhibition of enzyme activity by the compounds was then calculated using GraphPad Prism 6 and fitted with a log (inhibitor) vs. response-Variable slope mode. The fitting equation was: Y=Bottom+(Top−Bottom)/(1+10^((Log IC50−X)*HillSlope)), wherein Y represents the percentage of residual enzyme activity known and X represents the known concentration of compound after the logarithm.

H1299 cells = assay: Anti-proliferative effect on H1299 cells by Cell Titer-Glo; format: cell-based; settings: 3 days
Description: (§1) Test Example 2: Evaluation of Cell Proliferation Inhibitory Activity
1. Evaluation of the Anti-Proliferative Effect of Compounds on H1299 Cells by the Cell Titer-Glo Method
(§2) Compound solutions of different concentration gradients were prepared. […] The cell growth group without compound was used as a positive control (maximum signal control) and the medium was used as a negative control (minimum signal control), while ensuring that the final level of DMSO in each reaction well was 0.2%. After removing the medium from the 384-well plate, 25 ul of the configured compound at different concentrations was transferred into the well plate and the compound and cells were incubated in the cell incubator at 37° C. with 5% CO2 for 3 days.
(§3) The 384-well plates were removed from the cell incubator and allowed to equilibrate for 1h to room temperature. 25 ul of Cell Titer-Glo assay was added to each well, lysed on a shaker for 2 min and then read out (Luminescence) using a BMG PHERAStar after 10 min incubation. Calculate the inhibition rate from the luminescence signal: first calculate the average of the positive control (maximum signal control) and the negative control (minimum signal control).
(§4) was used to calculate the rate of inhibition of the cells by different concentrations of the compounds. The IC50 of the compound on cell activity inhibition was calculated by fitting a log(inhibitor) vs. response-Variable slope model to GraphPad Prism 6. The fitted equation was: Y=Bottom+(Top−Bottom)/(1+10^((Log IC50−X)*HillSlope)), where Y represents the rate of inhibition and X represents the concentration of the known compound after Log.
(§5) The results of the in vitro anti-cell proliferation assays of H1299 and MIA Paca-2 for the example compounds according to the method described above are shown in Table 2, wherein the IC50 of each compound was determined and classified according to the description as follows: […]

[1] = Liver microsomes in vitro stability (mouse); format: in vitro ADME; settings: read-out: T1/2/min
Description: (§6) 1. Preparation of Working Solution:
(§7) Microsomes were taken out from the −80° C. refrigerator, rapidly melted in a 37° C. water bath and placed on ice until ready to use. The test article was diluted with DMSO to prepare a 10 mM stock solution, and then diluted with acetonitrile to a 0.5 mM secondary stock solution. […] NADPH was diluted with Buffer C to a working solution of 6 mM for the starter solution. An acetonitrile solution containing an internal standard was prepared as the precipitant, and Verapamil-HCl was chosen as the internal standard at a concentration of 4 ng/ml.
(§8) 2. Experimental Procedure:
(§9) A round-bottom well plate was taken, noted as the reaction plate, and the prepared working solution for each compound was dispensed into the well plate according to the number of replicates and time points (0 h samples were also added to the reaction plate), 30 μL/well; the plate was incubated at 37° C. for 10 min. A separate plate with pointed bottom wells, noted as a precipitation plate, was added with 135 μL precipitant per well; 0 h samples were transferred to the plate after 10 min incubation and 15 μL of starter solution was added; the plate was placed on ice before centrifugation.
(§10) The diluted starter solution was added in sufficient quantity to the dispensing plate to facilitate the multichannel pipette aspiration operation.
(§11) The reaction was carried out on a warm incubation shaker and 15 μL of starter solution/sample is added to the plate using a multichannel pipette. The reaction was mixed with a slight shake to initiate the reaction, which was accurately timed and recorded using a timer. In general, samples with shorter reaction times are initiated late and vice versa early, allowing sufficient time for multiple plate manipulation to terminate the reaction. For example, as for the four experiments of 5, 15, 30, and 60 min, the 60 min experiment was started first, and the 5 min experiment was started later, so as to leave sufficient time for the 5 min group.
(§12) After the reaction time had elapsed, all the solution in the plate was aspirated using the multichannel pipette and added to the precipitation plate to terminate the reaction at that point in time. After all reactions had been terminated, the plates were shaken for ten minutes on a plate shaker at 600 rpm to precipitate the protein. The plate was centrifuged at 4° C. for 15 minutes at maximum rpm. 80 μL of supernatant was taken, 320 μL of pure water was added and mixed for LC-MS analysis.

[2] = Liver microsomes in vitro stability (human); format: in vitro ADME; settings: read-out: T1/2/min (H)
Description: as §6, §7, §8, §9, §10, §11, §12

MIA PaCa2 cells = assay: Anti-proliferative effect on MIA PaCa2 cells by Cell Titer-Glo; format: cell-based; settings: Homo sapiens, MIA PaCa-2, 72 h, 3 days, read-out: MIA PaCa 2 (IC50, inhibition of proliferation in vitro)
Description: as §1
2. Evaluation of the Anti-Proliferative Effect of Compounds on MIA PaCa2 Cells by the Cell Titer-Glo Method
as §2
as §3, with “1 h” for “1h”
as §4, with “Y=Bottom+(Top-Bottom)/(1+10^((Log” for “Y=Bottom+(Top−Bottom)/(1+10^((Log”, “wherein” for “where”
as §5

[3] = Membrane permeability study (Caco-2); format: in vitro ADME; settings: human; for efflux ratio at 90 min, 10 µM: Caco-2, pH 7.4; for Papp A→B at 90 min, 10 µM / Papp B→A at 90 min, 10 µM: pH 7.4, Caco-2, 10 μM; for Papp A→B at 90 min, 10 µM: apical to basolateral; for Papp B→A at 90 min, 10 µM: basolateral to apical
Description: Caco-2 cells were purchased from the […] (Rockville, MD). The cell culture medium was modified Eagle's medium (MEM) containing 10% inactivated fetal bovine serum and 1% non-essential amino acids.
The cells were incubated for 21-28 days after inoculation for transport experiments and the apparent permeability (Papp) of Lucifer Yellow was used to characterize and verify the compactness of the cell monolayer. […] A 10 μM working solution of the compound to be tested was added to the apical side and basolateral side of Caco-2 and incubated at 37° C. for 90 min. After the incubation, dilute the samples on the apical side and basolateral side, and the concentrations of compounds on the apical and basolateral sides were detected by LC-MS/MS, and the concentrations of the compounds were quantified by standard curve.

[4] = Plasma protein binding (PPB), equilibrium dialysis; format: in vitro ADME; settings: mouse plasma, 5 h dialysis
From the text: 1. Experimental Procedure
2. Data Processing and Parameter Calculation

[5] = Pharmacokinetics on single dose in mice (intravenous and oral); format: in vivo, ICR mice; settings: male, ICR, mouse, plasma, Oral, 10 mg/kg
Description: 1. Experimental Aim: The present experiment aimed to obtain the pharmacokinetic profile of the subject compounds in ICR mice (both intravenous and oral) 3.1.2 Test System Species: SPF grade male ICR mice Body weight/weekly age: about 30 g 4. […] 4.2 Subjects Given (Route) Intravenous: 1 mg/kg in a volume of 5 mL/kg Gavage: 10 mg/kg in a volume of 10 mL/kg Ultrasound for 5 min before administration 4.3 Subject Preparation (Concentration) Intravenous: 0.2 mg/mL Gavage: 1 mg/mL Fast overnight before administration and feed four hours after administration. […] The blood samples were stored in a refrigerator at or below −20° C. for LC-MS/MS analysis. […] LC-MS/MS Analytical Detection Used 5. Data Processing The samples were detected for drug concentration at each time point by LC-MS/MS. Pharmacokinetic parameters terminal elimination half-life (t1/2), area under the curve (AUC), apparent volume of distribution (Vd), clearance (CL), mean residence time (MRT), and Cmax were calculated using the non-compartmental model of Phoenix WinNonlin 5.2. Bioavailability (F %) was directly from serum concentration results. Mean±standard deviation (X±SD) was used for blood concentration and pharmacokinetic parameters, etc. Specific testing and analytical methods were specified in the form of protocol revisions.

[6] = Homo sapiens, NCI-H1299, 72 h, read-out: H1299 (IC50, inhibition of proliferation in vitro)

Row | inhibition at 30 min, 10 µM (CYP2B6) [%] | Structure (SMILES) | pIC50 (Wee1 protein) | pIC50 (H1299 cells; [6]) | half-life at 1 µM [1] [min] | half-life at 1 µM [2] [min] | pIC50 (MIA PaCa2 cells) | efflux ratio at 90 min, 10 µM [3] | Papp A→B at 90 min, 10 µM [3] [×10⁻⁶ cm/s] | Papp B→A at 90 min, 10 µM [3] [×10⁻⁶ cm/s] | fraction unbound at 5 h, 1 µM [4] | AUC(0-t) [5] [ng·h/mL] | Cmax [5] [ng/mL] | MRT [5] [min] | half-life [5] [min] | pIC50 (H1299 cells; listed as Compound53, read-out: H1299 (IC50, inhibition of proliferation in vitro))
1 | 1.38 | C=CCn1c(=O)c2cnc(Nc3ccc(N4C[C@@H]5C[C@H]4CN5C)cc3)nc2n1-c1cccc(C(C)(C)O)n1 [Compound 3] |  |  |  |  |  |  |  |  |  |  |  |  |  | 
2 |  | C=CCn1c(=O)c2cnc(Nc3ccc(OC4CN5CCC4CC5)cc3)nc2n1-c1cccc(C(C)(C)O)n1 (stereo not shown) [Compound 4] | > 8.30 | 5.70 to 6.00 | 10.1 | 22.2 |  |  |  |  |  |  |  |  |  | 
3 |  | C=CCn1c(=O)c2cnc(Nc3ccc(CC4C(=O)C5CCN4CC5)cc3)nc2n1-c1cccc(N=S(C)(C)=O)n1 (stereo not shown) [Compound 6] | > 8.30 | 6.00 to 7.00 | 5.72 | 5.16 |  |  |  |  |  |  |  |  |  | 
4 |  | C=CCn1c(=O)c2cnc(Nc3ccc(OCC)c(CC4C(=O)C5CCN4CC5)c3)nc2n1-c1cccc(N=S(C)(C)=O)n1 (stereo not shown) [Compound 9] | > 8.30 | 5.70 to 6.00 | 0.78 | 2.82 |  |  |  |  |  |  |  |  |  | 
5 |  | C=CCn1c(=O)c2cnc(Nc3cccc(CC4C(=O)C5CCN4CC5)c3)nc2n1-c1cccc(N=S(C)(C)=O)n1 (stereo not shown) [Compound 10] | > 8.30 | 6.00 to 7.00 | 1.34 | 8.31 |  |  |  |  |  |  |  |  |  | 
6 |  | C=CCn1c(=O)c2cnc(Nc3ccc(N4C[C@@H]5C[C@H]4CN5C)c(C)c3)nc2n1-c1cccc(C(C)(C)O)n1 [Compound 12] | 8.00 to 8.30 | 6.00 to 7.00 | 31.5 |  | 6.00 to 7.00 | 11.8 | 2.84 | 33.5 |  |  |  |  |  | 
7 |  | C=CCn1c(=O)c2cnc(Nc3ccc(N4CCOC5(CCCN(C)C5)C4)cc3)nc2n1-c1cccc(C(C)(C)O)n1 (stereo not shown) [Compound 46] | 7.00 to 8.00 | 6.00 to 7.00 | 13.6 | 16.8 | 6.00 to 7.00 |  |  |  | 0.179 |  |  |  |  | 
8 |  | C=CCn1c(=O)c2cnc(Nc3ccc(N4CC5CC(C4)N5CCF)cc3)nc2n1-c1cccc(C(C)(C)O)n1 [Compound 48] | > 8.30 | 6.00 to 7.00 |  |  | 6.00 to 7.00 | 2.65 | 13.3 | 35.3 | 0.031 | 482 | 470 | 54 | 38.4 | 
9 |  | C=CCn1c(=O)c2cnc(Nc3ccc(N4CC5CC(C4)N5C4CCC4)cc3)nc2n1-c1cccc(C(C)(C)O)n1 [Compound 49] | > 8.30 | 6.00 to 7.00 |  |  | 6.00 to 7.00 |  |  |  | 0.042 | 534 | 388 | 68.4 | 61.8 | 
10 |  | C=CCn1c(=O)c2cnc(Nc3ccc(N4CC5CC(C4)N5C)cc3)nc2n1-c1ccc2ccn(CC)c2n1 [Compound 51] | > 8.30 | 6.00 to 7.00 | 14.7 | 19 | 6.00 to 7.00 |  |  |  | 0.03 | 430 | 290 | 70.8 | 57 | 
11 |  | C=CCn1c(=O)c2cnc(Nc3ccc(N4CC5CC(C4)N5C)cc3)nc2n1-c1ccc2cnn(CC)c2n1 [Compound 53] | 8.00 to 8.30 |  |  |  | 5.30 to 5.70 |  |  |  | 0.035 | 1640 | 800 | 115 | 113 | 6.00 to 7.00
